In ChEMBL document CHEMBL1127708, “Aromatase inhibitors. Syntheses and structure-activity studies of novel pyridyl-substituted indanones, indans, and tetralins” (J Med Chem, 1994):

Key:
[1] = organism: Rattus norvegicus; assay type: functional; conditions: dose 10.3 mg/kg
[2] = organism: Rattus norvegicus; assay type: functional; conditions: dose 10.3 mg/kg; remark: listed apart in the source
[3] = organism: Rattus norvegicus; assay type: functional; conditions: dose 10.3 mg/kg; remark: listed apart in the source
[4] = organism: Rattus norvegicus; assay type: functional; conditions: dose 10.3 mg/kg; remark: listed apart in the source
[5] = organism: Rattus norvegicus; assay type: functional; conditions: dose 10.3 mg/kg; remark: listed apart in the source
[6] = organism: Rattus norvegicus; assay type: functional; conditions: dose 10.3 mg/kg; remark: listed apart in the source
[7] = organism: Rattus norvegicus; assay type: functional; conditions: dose 10.3 mg/kg; remark: listed apart in the source
[8] = biological target: T1, Aromatase (Rattus norvegicus, UniProt P22443)
T1 sequence (P22443 whole entry): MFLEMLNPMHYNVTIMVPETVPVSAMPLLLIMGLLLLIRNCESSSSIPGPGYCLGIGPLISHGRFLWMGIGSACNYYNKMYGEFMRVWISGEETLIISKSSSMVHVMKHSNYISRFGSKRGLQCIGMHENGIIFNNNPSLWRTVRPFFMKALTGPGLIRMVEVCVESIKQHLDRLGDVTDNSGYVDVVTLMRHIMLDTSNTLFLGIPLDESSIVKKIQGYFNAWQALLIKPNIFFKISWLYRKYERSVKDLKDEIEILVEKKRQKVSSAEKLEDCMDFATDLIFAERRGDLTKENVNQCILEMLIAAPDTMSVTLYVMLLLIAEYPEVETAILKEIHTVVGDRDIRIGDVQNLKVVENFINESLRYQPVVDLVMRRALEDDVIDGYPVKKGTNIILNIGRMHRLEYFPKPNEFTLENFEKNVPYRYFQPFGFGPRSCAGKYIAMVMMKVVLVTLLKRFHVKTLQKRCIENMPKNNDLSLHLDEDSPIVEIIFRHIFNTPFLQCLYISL

[9] = organism: Rattus norvegicus; assay type: functional
[10] = organism: Rattus norvegicus; assay type: functional; remark: listed apart in the source
[11] = organism: Rattus norvegicus; assay type: functional; remark: listed apart in the source
[12] = organism: Rattus norvegicus; assay type: functional; remark: listed apart in the source
[13] = organism: Rattus norvegicus; assay type: functional; remark: listed apart in the source
[14] = organism: Rattus norvegicus; assay type: functional; conditions: dose 10 mg/kg
[15] = organism: Rattus norvegicus; assay type: functional; remark: listed apart in the source
[16] = organism: Rattus norvegicus; assay type: functional; conditions: dose 10 mg/kg; remark: listed apart in the source
[17] = organism: Rattus norvegicus; assay type: functional; conditions: dose 10 mg/kg; remark: listed apart in the source
[18] = organism: Rattus norvegicus; assay type: functional; conditions: dose 10 mg/kg; remark: listed apart in the source
[19] = organism: Rattus norvegicus; assay type: functional; conditions: dose 10 mg/kg; remark: listed apart in the source
[20] = organism: Rattus norvegicus; assay type: functional; conditions: dose 10 mg/kg; remark: listed apart in the source
[21] = organism: Rattus norvegicus; assay type: functional; conditions: dose 10 mg/kg; remark: listed apart in the source
[22] = organism: Rattus norvegicus; assay type: functional; conditions: dose 10 mg/kg; remark: listed apart in the source

SMILES: Oc1cccc2c1CCC(Cc1ccncc1)C2 (stereo not drawn)
- Change of tumor area [1]: 24%
- No. of tumors [2]: 4
- Change of tumor area [3]: 123%
- Change of tumor area [4]: 16%
- No. of tumors [5]: 37
- Change of tumor area [6]: 19%
- Change of tumor area [7]: 41%

SMILES: O=C1c2ccc(O)cc2CC1Cc1ccncc1 (stereo not drawn)
- Effect [8]: 160

SMILES: CCC(=O)OC1CCC2C3CCC4=CC(=O)CCC4C3CCC12C (stereo not drawn)
- No. of tumors [9]: 12
- Change of tumor area [10]: 25%
- Change of tumor area [11]: 19%
- Change of tumor area [12]: 36%
- No. of tumors [13]: 36
- Change of tumor area [14]: 141%
- Change of tumor area [15]: 19%

SMILES: COc1ccc2c(c1)CC(Cc1ccncc1)C2=O (stereo not drawn)
- Effect [8]: 150

SMILES: CCC1(c2ccc(N)cc2)CCC(=O)NC1=O (stereo not drawn) [AMINOGLUTETHIMIDE]
- No. of tumors [16]: 7
- Change of tumor area [17]: 54%
- Of tumors [18]: 6%
- No. of tumors [19]: 35
- Change of tumor area [20]: 4%
- Change of tumor area [21]: 17%
- Change of tumor area [22]: 23%
